Experimental data published in patent US4882349A, “Pyrrolacetic amides having antiinflammatory activity” (priority 1982, dated 1989).

What was measured:
[1] = tested on: phenyl-p-quinone-induced writhing (abdominal contractions); test: phenylquinone-induced writhing test (analgesic activity), compound given 30 min before phenyl-p-quinone; assay type: in vivo, male Wistar rats
In short: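 Male Wistar rats (110±5 g), fasted 14 h, received test compounds orally or parenterally in 0.5% CMC/saline vehicle 30 min before 2 ml of 0.36% phenyl-p-quinone in 5% ethanol.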

[2] = in vivo; details: mouse
[3] = tested on: cough provoked by mechanical stimulation of the tracheal bifurcation mucosa; test: antitussive activity, mechanically provoked coughing; assay type: in vivo, albino Guinea-pigs; details: 1 h after administration
Method: The antitussive effect on albino Guinea-pigs weighing 300 g was evaluated using the method described by Y. Kase (Selected Pharmacological Testing Methods, p.363, Marcel Dekker Inc., New York, 1968). Each dose was tested in a group of animals with a Y cannula inserted into the trachea. In order to provoke coughing, the mucosa of the tracheal bifurcation was mechanically stimulated by insertion of a wild boar's hair through an opening in the cannula, while the other opening was connected to a kymograph to plot the amplitude and/or frequency. The reduction in the number of coughs was evaluated at one hour after administration of the compounds under examination by following the plottings for twenty minutes and comparing the response of the control animals.

[4] = tested on: mucus secreted by the respiratory airway; test: antisecretory activity, respiratory mucus secretion; assay type: in vivo, albino male New Zealand rabbits; details: vs control group
Method: The experiment was carried out in accordance with the method described by Y. Kase (Folia Pharmacol. Jap. 73: 605, 1977) for the purpose of investigating whether or not the compounds under examination determine changes in the volume of the mucus secreted by the respiratory airway. Groups of four albino male New Zealand rabbits (mean weight: 2.5 kg) were used for testing each dose per single group. The animals were anesthetized with urethane (1.1 g/ks b.w.) via the intraperitoneal route and a Y cannula was inserted into the trachea. In order to stimulate mucous secretion a humidifier was connected to the cannula permitting the animals to spontaneously breathe air with 100% humidity at a constant temperature of 39° C. The secreted mucus was collected through another opening in the cannula and measured at three and six hours after administration of the compounds under examination or of the vehicle alone administered in the order of […] (controls). Calculation of the increase or decrease in mucous secretion was based upon the percentage differences between the groups treated with the compounds under examination and the control group. Table VII gives the percentage differences in mucous secretion, and the tested compounds with relative doses and routes of administration.

[5] = in vivo; details: rat
[6] = tested on: carrageenin-induced oedema; test: carrageenin-induced oedema test (anti-inflammatory activity); assay type: in vivo, albino male Wistar rats

Question: Which results are given for `COc1ccccc1OC(=O)CNC(=O)Cc1ccc(C(=O)c2ccc(C)cc2)n1C` [Compound 1-d, 1-methyl-5-p-toluoylpyrrole-2-acetamidoacetic acid guaiacyl ester]?
Answer: % Protection ([1]; 5 mg/Kg i.p.): 22.1%; % Protection ([1]; 5 mg/Kg per os): 29.1%; % Protection ([1]; 10 mg/Kg i.p.): 56.0%; % Protection ([1]; 10 mg/Kg per os): 53.4%; % Protection ([1]; 20 mg/Kg i.p.): 87.0%; % Protection ([1]; 20 mg/Kg per os): 80.2%; LD50 ([2]; ip): 1370 mg/kg; LD50 ([2]; po): > 1500 mg/kg; % inhibition, cough amplitude ([3]; 50 mg/Kg i.p.): 12%; % inhibition, cough frequency ([3]; 50 mg/Kg i.p.): 15%; % inhibition, cough amplitude ([3]; 50 mg/Kg per os): 10%; % inhibition, cough frequency ([3]; 50 mg/Kg per os): 18%; % inhibition, cough amplitude ([3]; 75 mg/Kg i.p.): 20%; % inhibition, cough frequency ([3]; 75 mg/Kg i.p.): 36%; % inhibition, cough amplitude ([3]; 75 mg/Kg per os): 22%; % inhibition, cough frequency ([3]; 75 mg/Kg per os): 29%; % inhibition, cough amplitude ([3]; 100 mg/Kg i.p.): 30%; % inhibition, cough frequency ([3]; 100 mg/Kg i.p.): 45%; % inhibition, cough amplitude ([3]; 100 mg/Kg per os): 30%; % inhibition, cough frequency ([3]; 100 mg/Kg per os): 49%; % difference in mucus secretion ([4]; 50 mg/Kg i.p., 3 h): -5%; % difference in mucus secretion ([4]; 50 mg/Kg i.p., 6 h): -5%; % difference in mucus secretion ([4]; 50 mg/Kg per os, 3 h): 0.0%; % difference in mucus secretion ([4]; 50 mg/Kg per os, 6 h): 0.0%; % difference in mucus secretion ([4]; 75 mg/Kg i.p., 3 h): -18%; % difference in mucus secretion ([4]; 75 mg/Kg i.p., 6 h): -15%; % difference in mucus secretion ([4]; 75 mg/Kg per os, 3 h): -15%; % difference in mucus secretion ([4]; 75 mg/Kg per os, 6 h): -10%; % difference in mucus secretion ([4]; 100 mg/Kg i.p., 3 h): -38%; % difference in mucus secretion ([4]; 100 mg/Kg i.p., 6 h): -30%; % difference in mucus secretion ([4]; 100 mg/Kg per os, 3 h): -32%; % difference in mucus secretion ([4]; 100 mg/Kg per os, 6 h): -27%; LD50 ([5]; ip): 1100 mg/kg; LD50 ([5]; po): 1450 mg/kg; oedema % inhibition ([6]; 2.5 mg/Kg per os, 2 h): 50.0%; oedema % inhibition ([6]; 2.5 mg/Kg per os, 4 h): 34.6%; oedema % inhibition ([6]; 2.5 mg/Kg per os, 6 h): 23.1%; oedema % inhibition ([6]; 2.5 mg/Kg per os, 24 h): 0.0%; oedema % inhibition ([6]; 2.5 mg/Kg per os, 48 h): 0.0%; oedema % inhibition ([6]; 2.5 mg/Kg per os, 72 h): 0.0%; oedema % inhibition ([6]; 2.5 mg/Kg, Table IV (route not given), 2 h): 52.3%; oedema % inhibition ([6]; 2.5 mg/Kg, Table IV (route not given), 4 h): 37.0%; oedema % inhibition ([6]; 2.5 mg/Kg, Table IV (route not given), 6 h): 26.0%; oedema % inhibition ([6]; 2.5 mg/Kg, Table IV (route not given), 24 h): 14.0%; oedema % inhibition ([6]; 2.5 mg/Kg, Table IV (route not given), 48 h): 0.0%; oedema % inhibition ([6]; 2.5 mg/Kg, Table IV (route not given), 72 h): 0.0%; oedema % inhibition ([6]; 5 mg/Kg per os, 2 h): 51.4%; oedema % inhibition ([6]; 5 mg/Kg per os, 4 h): 38.8%; oedema % inhibition ([6]; 5 mg/Kg per os, 6 h): 24.0%; oedema % inhibition ([6]; 5 mg/Kg per os, 24 h): 10.0%; oedema % inhibition ([6]; 5 mg/Kg per os, 48 h): 10.0%; oedema % inhibition ([6]; 5 mg/Kg per os, 72 h): 6.0%; oedema % inhibition ([6]; 5 mg/Kg, Table IV (route not given), 2 h): 54.0%; oedema % inhibition ([6]; 5 mg/Kg, Table IV (route not given), 4 h): 40.0%; oedema % inhibition ([6]; 5 mg/Kg, Table IV (route not given), 6 h): 24.6%; oedema % inhibition ([6]; 5 mg/Kg, Table IV (route not given), 24 h): 10.1%; oedema % inhibition ([6]; 5 mg/Kg, Table IV (route not given), 48 h): 0.0%; oedema % inhibition ([6]; 5 mg/Kg, Table IV (route not given), 72 h): 0.0%; oedema % inhibition ([6]; 10 mg/Kg per os, 2 h): 61.5%; oedema % inhibition ([6]; 10 mg/Kg per os, 4 h): 41.2%; oedema % inhibition ([6]; 10 mg/Kg per os, 6 h): 34.9%; oedema % inhibition ([6]; 10 mg/Kg per os, 24 h): 12.6%; oedema % inhibition ([6]; 10 mg/Kg per os, 48 h): 14.0%; oedema % inhibition ([6]; 10 mg/Kg per os, 72 h): 9.0%; oedema % inhibition ([6]; 10 mg/Kg, Table IV (route not given), 2 h): 60.0%; oedema % inhibition ([6]; 10 mg/Kg, Table IV (route not given), 4 h): 46.9%; oedema % inhibition ([6]; 10 mg/Kg, Table IV (route not given), 6 h): 36.7%; oedema % inhibition ([6]; 10 mg/Kg, Table IV (route not given), 24 h): 16.5%; oedema % inhibition ([6]; 10 mg/Kg, Table IV (route not given), 48 h): 6.3%; oedema % inhibition ([6]; 10 mg/Kg, Table IV (route not given), 72 h): 0.0%; oedema % inhibition ([6]; 20 mg/Kg per os, 2 h): 62.1%; oedema % inhibition ([6]; 20 mg/Kg per os, 4 h): 48.7%; oedema % inhibition ([6]; 20 mg/Kg per os, 6 h): 32.8%; oedema % inhibition ([6]; 20 mg/Kg per os, 24 h): 26.6%; oedema % inhibition ([6]; 20 mg/Kg per os, 48 h): 25.9%; oedema % inhibition ([6]; 20 mg/Kg per os, 72 h): 3.3%; oedema % inhibition ([6]; 20 mg/Kg, Table IV (route not given), 2 h): 65.0%; oedema % inhibition ([6]; 20 mg/Kg, Table IV (route not given), 4 h): 50.4%; oedema % inhibition ([6]; 20 mg/Kg, Table IV (route not given), 6 h): 48.6%; oedema % inhibition ([6]; 20 mg/Kg, Table IV (route not given), 24 h): 23.5%; oedema % inhibition ([6]; 20 mg/Kg, Table IV (route not given), 48 h): 9.1%; oedema % inhibition ([6]; 20 mg/Kg, Table IV (route not given), 72 h): 8.4%; oedema % inhibition ([6]; 50 mg/Kg per os, 2 h): 66.9%; oedema % inhibition ([6]; 50 mg/Kg per os, 4 h): 66.8%; oedema % inhibition ([6]; 50 mg/Kg per os, 6 h): 57.8%; oedema % inhibition ([6]; 50 mg/Kg per os, 24 h): 30.9%; oedema % inhibition ([6]; 50 mg/Kg per os, 48 h): 36.3%; oedema % inhibition ([6]; 50 mg/Kg per os, 72 h): 38.6%; oedema % inhibition ([6]; 50 mg/Kg, Table IV (route not given), 2 h): 69.7%; oedema % inhibition ([6]; 50 mg/Kg, Table IV (route not given), 4 h): 74.0%; oedema % inhibition ([6]; 50 mg/Kg, Table IV (route not given), 6 h): 67.2%; oedema % inhibition ([6]; 50 mg/Kg, Table IV (route not given), 24 h): 34.5%; oedema % inhibition ([6]; 50 mg/Kg, Table IV (route not given), 48 h): 20.8%; oedema % inhibition ([6]; 50 mg/Kg, Table IV (route not given), 72 h): 15.3%; oedema % inhibition ([6]; 100 mg/Kg per os, 2 h): 68.0%; oedema % inhibition ([6]; 100 mg/Kg per os, 4 h): 74.0%; oedema % inhibition ([6]; 100 mg/Kg per os, 6 h): 67.5%; oedema % inhibition ([6]; 100 mg/Kg per os, 24 h): 40.3%; oedema % inhibition ([6]; 100 mg/Kg per os, 48 h): 38.0%; oedema % inhibition ([6]; 100 mg/Kg per os, 72 h): 33.0%; oedema % inhibition ([6]; 100 mg/Kg, Table IV (route not given), 2 h): 76.5%; oedema % inhibition ([6]; 100 mg/Kg, Table IV (route not given), 4 h): 79.5%; oedema % inhibition ([6]; 100 mg/Kg, Table IV (route not given), 6 h): 73.4%; oedema % inhibition ([6]; 100 mg/Kg, Table IV (route not given), 24 h): 42.4%; oedema % inhibition ([6]; 100 mg/Kg, Table IV (route not given), 48 h): 33.0%; oedema % inhibition ([6]; 100 mg/Kg, Table IV (route not given), 72 h): 31.6%
